From patent publication US11161845B2, “Pyrrolopyridine-aniline compounds for treatment of dermal disorders” (Nflection Therapeutics, Inc., priority 2017, dated 2021)

Assays:
[1] = clinically tested; cited from earlier work
hERG channel protein = target: T1, hERG channel protein (Homo sapiens, UniProt Q12809); assay: hERG screening assay (Predictor hERG FP); assay type: binding; settings: fluorescence polarization tracer displacement
T1 construct: purchased ThermoFisher PV5365
Description: hERG screening was conducted using a procedure similar to the procedure described by Piper et al. (Piper, D. R. et al., Assay Drug Dev. Technol. 2008, 6(2):213-223). The Predictor hERG FP assay (available from ThermoFisher, cat. no. PV5365) is a homogenous, fluorescence polarization biochemical-based format utilizing a membrane fraction containing hERG channel protein (Predictor hERG Membrane) and a high affinity, red-fluorescent hERG channel ligand (Predictor hERG Tracer Red). When the Predictor hERG Tracer ligand is bound to the hERG channel it produces high fluorescence polarization values. Compounds that bind to the hERG channel protein (competitors) displace the Predictor hERG Tracer Red resulting in decreased fluorescence polarization values.
Test compounds were solubilized in DMSO at 100× (or greater) of the desired starting concentration. Screening was conducted with a final concentration of 1% DMSO. For 10-point titrations, 3-fold serial dilutions were performed from the starting concentrations. The assay buffer used was 25 mM HEPES (pH 7.5), 15 mM KCl, 1 mM MgCl2, and 0.05% Pluronic F-127 (available from Sigma-Aldrich).
Predictor hERG membranes were stored as a 2× stock at −80° C. Each membrane lot was titrated to identify the concentration of membranes required to obtain ˜70% bound tracer. Before setting up the assay the membranes were thawed in a 37° C. water bath and stored at room temperature. To avoid light scatter caused by large membrane particulates the membranes were sonicated until a homogeneous solution free of particulates is obtained. […]
384 well untreated low-volume polystyrene microplates (Corning Cat. #4511) were used for the assay. […] The assay plate was read on a fluorescence plate reader (Tecan Safire^2) and the data was analyzed. […]
Assay blank control wells consisted of Predictor hERG Membranes and Assay Buffer. The blank wells were used for background subtraction of raw parallel and perpendicular fluorescence values prior to the calculation of polarization values. […]

[2] = S9 stability assay, human liver S9 fraction; assay type: in vitro ADME; settings: for CLint: known MEK compounds; for microsomal CLint at 1 μM / half-life at 1 μM: pH 7.4, Table 1, human liver S9 fraction; for microsomal CLint at 1 μM: read-out: CLint; for half-life at 1 μM: read-out: Liver S9 t1/2
Description: Compounds were assessed for metabolic stability in human skin by assessing their rate of disappearance from human S9 skin fraction. Similarly, compounds were assessed for metabolic stability in human liver by assessing their rate of disappearance from human S9 liver fraction. The protocol below can be used to assess the difference between skin and hepatic metabolism.
The assay was carried out in 96-well microtiter plates at 37° C. Reaction mixtures (25 μL) contained a final concentration of 1 μM test compound, 2 mg/mL liver or skin S9 protein, and 1 mM NADPH in buffer (100 mM potassium phosphate, pH 7.4 buffer with 1 mM EDTA, 3 mM MgCl2). At each of the time points (0, 15, 30, and 60 minutes), 150 μL of quench solution (100% acetonitrile with 0.1% formic acid) with internal standard was transferred to each well. Besides the zero minute controls, mixtures containing the same components except the NADPH were also prepared as the negative control. Verapamil or testosterone was included as a positive control to verify assay performance. Plates were sealed and centrifuged at 4° C. for 15 minutes at 4000 rpm. The supernatant was transferred to fresh plates for LC/MS/MS analysis.
All samples were analyzed on LC/MS/MS using an AB Sciex API 4000 instrument, coupled to a Shimadzu LC-20AD LC Pump system. Analytical samples were separated using a Waters Atlantis T3 dC18 reverse phase HPLC column (20 mm×2.1 mm) at a flow rate of 0.5 mL/min. The mobile phase consisted of 0.1% formic acid in water (solvent A) and 0.1% formic acid in 100% acetonitrile (solvent B).
The extent of metabolism was calculated as the disappearance of the test compound, compared to the 0-min control reaction incubations. Initial rates were calculated for the compound concentration and used to determine t1/2 values and subsequently, the intrinsic clearance, CLint=(0.693) (1/t1/2 (min)) (mL incubation/mg of S9 protein).

P-gp (human MDR1) = assay: in vitro; settings: dog; for Papp A→B at 1 h, 5 μM / Papp B→A at 1 h, 5 μM: MDCK-MDR1, Papp
Description: (§1) MDCK-MDR1 is a stable-transfected cell line originating from MDCK cells, with over-expression of human MDR1 gene. The cell line is widely used for the identification and characterization of P-gp substrates and inhibitors.
(§2) MDCK-MDR1 cells were plated into 96-well Millipore Millicell-96 plates at 7,500 cells/75 μL/well and incubated for three days at 37° C. with 5% CO2. Cells were washed with Hank's Balanced Salt Solution (HBSS) with 5 mM HEPES for 30 minutes before starting the experiment. Test compound solutions were prepared by diluting DMSO stock into HBSS buffer, resulting in a final DMSO concentration of 0.1%. Prior to the experiment, cell monolayer integrity was verified by […] electrical resistance (TEER). Transport experiment was initiated by adding test compounds to the apical (75 μL) or basal (250 μL) side. Transport plates were incubated at 37° C. in a humidified incubator with 5% CO2. Samples were taken from the donor and acceptor compartments after one hour and analyzed by liquid chromatography with tandem mass spectrometry (LC/MS/MS).
(§3) Digoxin was used as reference control.
(§4) Apparent permeability (Papp) values were calculated using the following equation: Papp=(dQ/dt)/A/Co; where dQ/dt is the initial rate of amount of test compound transported across cell monolayer, A is the surface area of the filter membrane, and Co is the initial concentration of the test compound, calculated for each direction using a 4-point calibration curve by LC/MS/MS.
(§5) Net flux ratio between the two directional transports was calculated by the following equation: Ratio=Papp, B-A/Papp, A-B; where Papp, B-A and Papp, A-B represent the apparent permeability of test compound from the basal-to-apical and apical-to-basal side of the cellular monolayer, respectively.
(§6) Recovery was calculated based on the compound concentration at the end of the experiment, compared to that at the beginning of the experiment, adjusted for volumes.
(§7) A net flux ratio greater than two was considered a positive result for substrate determination. […] If the addition of a known P-gp inhibitor to the experiment reduces the net flux ratio by a significant amount (more than 50% reduction or reduces the ratio to close to unity), it is likely that the compound tested is a P-gp substrate.

MDCK-MDR1 cells = assay: in vitro; settings: dog, MDCK-MDR1, 1 h, 5 μM
Description: as §1, §2, §3, §4, §5, §6, §7

T1 sequence (Q12809 whole entry): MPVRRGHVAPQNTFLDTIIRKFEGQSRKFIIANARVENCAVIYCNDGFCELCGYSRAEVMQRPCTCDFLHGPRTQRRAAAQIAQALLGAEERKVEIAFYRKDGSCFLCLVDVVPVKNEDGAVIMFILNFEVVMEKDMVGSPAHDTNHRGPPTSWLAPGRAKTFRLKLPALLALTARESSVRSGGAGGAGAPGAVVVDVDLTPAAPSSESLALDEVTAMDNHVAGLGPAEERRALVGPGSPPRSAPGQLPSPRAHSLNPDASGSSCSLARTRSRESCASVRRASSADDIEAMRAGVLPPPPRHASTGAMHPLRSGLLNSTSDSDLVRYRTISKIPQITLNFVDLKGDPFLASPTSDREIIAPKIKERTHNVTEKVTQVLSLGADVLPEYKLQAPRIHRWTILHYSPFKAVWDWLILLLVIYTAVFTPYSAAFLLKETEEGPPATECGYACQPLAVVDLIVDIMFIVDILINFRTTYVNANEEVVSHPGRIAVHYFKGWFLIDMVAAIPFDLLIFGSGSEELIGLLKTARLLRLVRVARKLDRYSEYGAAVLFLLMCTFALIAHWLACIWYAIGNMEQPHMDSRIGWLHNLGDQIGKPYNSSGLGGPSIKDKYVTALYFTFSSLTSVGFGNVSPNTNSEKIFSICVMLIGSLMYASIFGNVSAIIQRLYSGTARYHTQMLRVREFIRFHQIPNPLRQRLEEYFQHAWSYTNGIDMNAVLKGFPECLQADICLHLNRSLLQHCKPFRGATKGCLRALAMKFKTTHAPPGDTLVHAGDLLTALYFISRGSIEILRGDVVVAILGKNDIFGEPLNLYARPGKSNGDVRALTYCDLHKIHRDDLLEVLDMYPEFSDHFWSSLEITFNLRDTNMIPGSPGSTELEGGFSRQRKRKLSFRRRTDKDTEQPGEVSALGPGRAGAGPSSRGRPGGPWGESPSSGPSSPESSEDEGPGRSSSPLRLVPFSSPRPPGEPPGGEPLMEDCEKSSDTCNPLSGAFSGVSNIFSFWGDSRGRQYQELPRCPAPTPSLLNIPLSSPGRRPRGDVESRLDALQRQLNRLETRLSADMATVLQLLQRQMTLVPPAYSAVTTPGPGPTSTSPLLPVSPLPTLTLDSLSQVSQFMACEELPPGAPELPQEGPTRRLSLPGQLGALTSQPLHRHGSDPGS

| SMILES | side effects [1] | IC50 (hERG channel protein) [µM] | CLint [2] [μL/min/mg protein] | microsomal CLint at 1 μM [2] [µL/min/mg] | half-life at 1 μM [2] [h] | efflux ratio at 1 h, 5 μM (P-gp (human MDR1); MDCK-MDR1) | Papp A→B at 1 h, 5 μM (P-gp (human MDR1); A-B Mean) [×10⁻⁶ cm/s] | Papp A→B at 1 h, 5 μM (P-gp (human MDR1); A-B Value) [×10⁻⁶ cm/s] | Papp B→A at 1 h, 5 μM (P-gp (human MDR1); B-A Mean) [×10⁻⁶ cm/s] | Papp B→A at 1 h, 5 μM (P-gp (human MDR1); B-A Value) [×10⁻⁶ cm/s] | Papp, A-B Value (MDCK-MDR1 cells) [×10⁻⁶ cm/s] | Papp, B-A Value (MDCK-MDR1 cells) [×10⁻⁶ cm/s] | Recover Rate (MDCK-MDR1 cells) [%] |
| --- | --- | --- | --- | --- | --- | --- | --- | --- | --- | --- | --- | --- | --- |
| O=C(NOC[C@H](O)CO)c1ccc(F)c(F)c1Nc1ccc(I)cc1F [PD0325901] | neurological side effects associated with ataxia, confusion, and syncope |  |  |  |  |  |  |  |  |  |  |  |  |
| O=C(NOC[C@H](O)CO)c1c(Nc2ccc(I)cc2F)sc2ncccc12 [Example C9] |  | 7.3 | 2.20 | 2.2 | 2.63 |  |  |  |  |  |  |  |  |
| Cn1c(C(=O)NOCCO)c(Nc2ccc(I)cc2F)c2cnccc21 [Example C8] |  | 1.8 | 5.27 | 5.27 | 1.1 | 3.4 | 12.8 | 12.7 | 43.5 | 43.2 | 12.9 | 43.7 | 99 |
